This is an account of results in patent publication US10106554B2, “7-(morpholinyl)-2-(N-piperazinyl) methyl thieno [2, 3-C] pyridine derivatives as anticancer drugs” (NATCO PHARMA LIMITED, priority 2014, dated 2018).

The term MTD denotes the largest dose that counted as tolerated. Higher therefore signals better tolerability.

The nature of data set [1]: MTD (Maximum Tolerated Dose) study in mice, OECD procedure. The settings on record: both sexes, mouse, in vivo, oral; p.o, single dose, 14 days observation, Swiss Albino mice. The protocol:
The method was carried out as per OECD procedure. The study was carried out using 5 (2 Male+3 Female) Swiss Albino Mice weighing between 18-30 gms. All the animals were fasted for 3 hrs prior to the oral administration of the drug. After preparing the sample administer immediately to their body all the animals according weight. […] At the end of 14 days all the surviving animals were autopsied and stomach were cut opened and observed for absorption of the drug through the GIT. The result is given in FIG. 1. • COMPOUND 2: MTD>2000 mg.kg, p.o (Single dose 14 days observation) • COMPOUND 1: MTD=500 mg/kg, p.o (Single dose 14 days observation) b. Antagonism of MIAPaca—2 Induced Tumor in Nude Mice: […]

The subject of data set [2] is NCI-H292 induced tumor (Erlotinib resistant lung cancer). The data set is described as follows: Antagonism of NCI-H292 induced tumor in nude mice (histopathology). In kind it is in vivo. The settings on record: 50 mg/kg for 15 days; histopathology (4/5); positive control tumor present in all 5 animals. The protocol:
The study was carried out with 15 Nude Mice (8 Male+7 Female).Weighing of Nude Mice were taken initially before inoculation of cell line and made into groups. Grouping as follows:
Group I: Positive control (4 Male+1 Female)
The cell line was inoculated to Nude Mice subcutaneously to the right hind limb flank at a strength of 6.25×10^5 cells/0.2 ml. […] The tumor volume was measured using the formula […] (l=length of tumor & w=width of tumor).When the mean tumor volume was recorded above 400 mm^3, the treatment with the above drugs will be started. […] Weight of Nude Mice Was taken daily before dosing and tumor measurement was done on alternative days using digital Vernier caliper. […] Mice dead during experimental schedule, the tumor with skin and liver were collected and stored in 10% buffered formalin .All the organs after collection were sent for histopathology.

Data set [3] has as its system MIAPaca-2 induced tumor. The data set is described as follows: Antagonism of MIAPaca-2 induced tumor in nude mice. In kind it is in vivo. As to conditions: for mean tumor area: p.o daily for 30 days, control 33.13 mm^2. The protocol:
This study was carried out with 20 Male Nude Mice. Weighing of Nude Mice were taken initially before inoculation of cell line and made into four groups.
Group-I: Positive control (5 Male)
Group-II: COMPOUND 2 (5 Male) (200 mg/kg, p.o)
Group-III: COMPOUND 1 (5 Male) (50 mg/kg, p.o)
Group-IV: Standard (5 Male) (Erlotinib hydrochloride—50 mg/kg, p.o & Gemcitabine hydrochloride—120 mg/kg, i.p.)
The cell line was inoculated to Nude Mice subcutaneously to the right hind limb flank at a strength of 1×10^7 cells/0.2 ml. […] The tumor volume was measured using the formula ½1×w^2 (l=length of tumor & w=width of tumor). When the mean tumor volume was recorded above 400 mm^3, the treatment with the above drugs were started. The above drugs were administered orally daily for 30 days, except Gemcitabine hydrochloride was administered on 1st and 3rd day of each week. Weight of Nude Mice was taken daily before dosing and tumor measurement was done on alternative days using digital Vernier caliper. Surviving animals were sacrificed after the dosing is complete for 30 days and organs (tumor with skin and pancreas) were collected.
Mice dead during experimental schedule, the tumor with skin and pancreas were collected and tumor with skin was stored in 10% buffered formalin and pancreas were stored in Bouin's solution. All the organs after collection were sent for histopathology.

Setting [4] is: 200 mg/kg, p.o, 5 mice, control 40%.

`Cc1c(CN2CCN(S(C)(=O)=O)CC2)sc2c(N3CCOCC3)nc(-c3cnc(N)nc3)cc12` [COMPOUND 1, 5-[3-methyl-2-[(4-methylsulfonylpiperazin-1-yl)methyl]-7-morpholino-thieno[2,3-c]pyridin-5-yl]pyrimidin-2-amine]: in data set [1], the MTD at 14 days was found to be 500 mg/kg. The “clearance of tumor, animals” value in data set [2] was determined as 80%. This molecule showed a mean tumor area in data set [3] (50 mg/kg) of 8.60 mm^2. In data set [3] (50 mg/kg, p.o, 5 mice), the “remaining tumors showing no much activity (no invasion)” value amounted to 80% and the “tumors showing invasion into underlying muscle” value was found to be 20%.
The molecule `CS(=O)(=O)N1CCN(Cc2cc3cc(-c4cnc(N)nc4)nc(N4CCOCC4)c3s2)CC1` [COMPOUND 2, 5-[2-[(4-methylsulfonylpiperazin-1-yl)methyl]-7-morpholino-thieno[2,3-c]pyridin-5-yl]pyrimidin-2-amine] displayed an MTD at 14 days in data set [1] above 2000 mg/kg. In addition, in data set [3] (200 mg/kg), the mean tumor area is given as 10.90 mm^2. Further, in data set [3] (setting [4]), the “tumors localized, no tumor invasion seen” value was 60% and the “tumors showing vascular invasion” value stood at 40%.
